This passage reports pest or weed control results from US8680012B2, “4-phenyl-pyrane-3,5-diones,4-phenyl-thiopyrane-3,6-diones and cyclohexanetriones as novel herbicides” (Syngenta Crop Protection LLC, priority 2006, dated 2014).

Assay type in all cases: in vivo
For assay [1], the system named is Alopecurus myosuroides (ALOMY). In words: Example B pre-emergence herbicidal activity, glasshouse pot test. The note with it: 312 h, rate 250 g/ha, evaluated after 13 days, read-out: Pre-emergence activity ALOMY (100=total damage to plant; 0=no damage to plant). In outline:
(§1)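 Compound sprayed in acetone/water (50:50) plus 0.5% Tween 20 onto potted soil one day post-sowing, or onto seedlings after 8 days. Scored 0–100 for damage after 13 days.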

For assay [2], the system named is Amaranthus retroflexus (AMARE). The description is as above. The settings on record: 312 h, rate 250 g/ha, evaluated after 13 days, read-out: Pre-emergence activity AMARE (100=total damage to plant; 0=no damage to plant). In outline:
as §1

In assay [3] the test system is Avena fatua (AVEFA). The description is as above. The settings on record: 312 h, rate 250 g/ha, evaluated after 13 days, read-out: Pre-emergence activity AVEFA (100=total damage to plant; 0=no damage to plant). In outline: as §1
The test system of assay [4] is Echinochloa crus-galli (ECHCG). The description is as above. The settings on record: 312 h, rate 250 g/ha, evaluated after 13 days, read-out: Pre-emergence activity ECHCG (100=total damage to plant; 0=no damage to plant). In outline:
as §1

Assay [5] concerns Setaria faberi (SETFA). The assay is described as above. The settings on record: 312 h, rate 250 g/ha, evaluated after 13 days, read-out: Pre-emergence activity SETFA (100=total damage to plant; 0=no damage to plant). In outline:
as §1

Assay [6] has as its system Alopecurus myosuroides (ALOMY). The experiment in a line: Example B post-emergence herbicidal activity, glasshouse pot test. The settings on record: 312 h, rate 250 g/ha, evaluated after 13 days, read-out: Post-emergence activity ALOMY (100=total damage to plant; 0=no damage to plant). In outline: as §1
Assay [7] relates to Amaranthus retroflexus (AMARE). Described as above. The settings on record: 312 h, rate 250 g/ha, evaluated after 13 days, read-out: Post-emergence activity AMARE (100=total damage to plant; 0=no damage to plant). In outline:
as §1

For assay [8], the system named is Avena fatua (AVEFA). The assay is described as above. The settings on record: 312 h, rate 250 g/ha, evaluated after 13 days, read-out: Post-emergence activity AVEFA (100=total damage to plant; 0=no damage to plant). In outline:
as §1

The test system of assay [9] is Echinochloa crus-galli (ECHCG). The assay is described as above. The note with it: 312 h, rate 250 g/ha, evaluated after 13 days, read-out: Post-emergence activity ECHCG (100=total damage to plant; 0=no damage to plant). In outline:
as §1

Assay [10] deals with Setaria faberi (SETFA). Described as above. The note with it: 312 h, rate 250 g/ha, evaluated after 13 days, read-out: Post-emergence activity SETFA (100=total damage to plant; 0=no damage to plant). In outline: as §1

As for `CCc1ccc(-c2ccc(Cl)cc2Cl)cc1C1=C(O)C(C)(C)OC(C)C1=O` (single isomer, unassigned) [Compound A-71], the pest or weed control at 250 g/ha in assay [1] turned out to be 40%; in assay [2] it was 0%; in [3], 20%; in assay [4] it was 80%; in assay [5] it was 100%; in assay [6] it was 30%. The pest or weed control at 250 g/ha in [7] amounted to 100%; in [8], 30%; in assay [9] it was 100%; in assay [10], 100%.

As to `Cc1ccc(-c2ccc(Cl)cc2Cl)cc1C1=C(O)C(C)(C)[S+]([O-])C(C)(C)C1=O` (single isomer, unassigned) [Compound C-7], the pest or weed control at 250 g/ha is 0% in assay [1]; 0% in assay [2]; 0% in assay [3]; 0% in assay [4]; 0% in assay [5]; 20% in assay [6]. The pest or weed control at 250 g/ha in assay [7] amounted to 0%; in [8], 0%; in [9] it was 60%; in assay [10], 30%.

Consider `CCc1ccc(-c2ccc(Cl)cc2OC)cc1C1=C(O)C(C)(C)OC(C)(C)C1=O` [Compound A-65], for which the pest or weed control at 250 g/ha was found to be 0% in assay [1]; 0% in [2]; 0% in assay [3]; 90% in assay [4]; 0% in assay [5]; 20% in assay [6]. The pest or weed control at 250 g/ha worked out at 10% in assay [7], 0% in assay [8], 90% in assay [9] and 70% in assay [10].

For `C#Cc1ccc(-c2ccc(CC)c(C3=C(O)C(C)(C)OC(C)(C)C3=O)c2)cc1` [Compound A-98], the pest or weed control at 250 g/ha in assay [1] is 0%; in assay [2], 50%; in [3] it was 0%; in [4], 90%; in assay [5], 90%; in [6] it was 50%. Besides, the pest or weed control at 250 g/ha in assay [7] came to 30%; in assay [8] it was 70%; in assay [9] it was 100%; in [10], 100%.

In the case of `CCc1ccc(-c2ccc(Cl)c(F)c2)cc1C1=C(O)C(C)(C)S(=O)(=O)C(C)(C)C1=O` [Compound C-13], the pest or weed control at 250 g/ha is 20% in assay [1]; 0% in assay [2]; 90% in assay [3]; 30% in assay [4]; 80% in assay [5]; 80% in [6]. Further, the pest or weed control at 250 g/ha in assay [7] stood at 20%; in [8], 90%; in assay [9] it was 100%; in assay [10], 100%.

For the compound `Cc1cc(C)c(-c2ccc(Cl)c(F)c2)c(C)c1C1=C(O)C(C)(C)OC(C)(C)C1=O` [Compound A-97], the pest or weed control at 250 g/ha in assay [1] was 0%; in assay [2] it was 0%; in [3], 0%; in assay [4] it was 50%; in assay [5], 60%; in assay [6] it was 40%. Further, the pest or weed control at 250 g/ha in [7] was found to be 0%; in assay [8] it was 30%; in [9], 90%; in [10], 70%.

On to `CC1(C)OC(C)(C)C(O)=C(c2cc(-c3ccc(Cl)cc3)ccc2Cl)C1=O` [Compound A-142], for which the pest or weed control at 250 g/ha in assay [1] came to 60%; in assay [2], 0%; in assay [3], 70%; in [4] it was 70%; in assay [5] it was 100%; in [6], 100%. Besides, the pest or weed control at 250 g/ha came out at 0% in [7], 80% in assay [8], 100% in [9] and 80% in assay [10].

For `CCc1ccc(-c2ccc(Cl)cc2)cc1C1=C(O)[C@]2(C)O[C@@H](CC2COC)C1=O` (stereo partly shown) [Compound A-122], the pest or weed control at 250 g/ha in assay [1] is 40%; in assay [2], 0%; in assay [3] it was 100%; in [4] it was 90%; in [5], 100%; in assay [6], 80%. Besides, the pest or weed control at 250 g/ha in assay [7] was determined as 40%; in [8] it was 50%; in [9], 100%; in assay [10], 100%.

For the compound `CCc1ccc(-c2ccc(Cl)cc2Cl)cc1C1=C(O)[C@]2(C)O[C@@H](CC2COC)C1=O` (stereo partly shown) [Compound A-133], the pest or weed control at 250 g/ha is 10% in assay [1]; 0% in [2]; 70% in [3]; 0% in assay [4]; 80% in assay [5]; 20% in [6]. Also, the pest or weed control at 250 g/ha in assay [7] turned out to be 70%; in [8], 80%; in assay [9], 100%; in assay [10], 100%.

On to `CCc1ccc(-c2ccc(Cl)cc2)cc1C1=C(O)C(C)(C)OC(C)(C)C1=O` [Compound A-4], for which the pest or weed control at 250 g/ha turned out to be 70% in assay [1]; 20% in assay [2]; 70% in assay [3]; 100% in assay [4]; 100% in [5]; 90% in assay [6]. Besides, the pest or weed control at 250 g/ha turned out to be 20% in assay [7], 80% in assay [8], 100% in [9] and 100% in [10].

`CCc1ccc(-c2ccc(Cl)c(Cl)c2Cl)cc1C1=C(O)C(C)(C)OC(C)(C)C1=O` [Compound A-137]: the pest or weed control at 250 g/ha in assay [1] turned out to be 70%; in assay [2], 0%; in assay [3], 90%; in assay [4], 100%; in [5] it was 100%; in assay [6], 90%. Further, the pest or weed control at 250 g/ha in [7] was 30%; in [8] it was 90%; in assay [9], 100%; in [10] it was 100%.

Turning to `Cc1ccc(-c2c(Cl)cc(Cl)cc2Cl)cc1C1=C(O)C(C)(C)OC(C)(C)C1=O` [Compound A-60], the pest or weed control at 250 g/ha in [1] stood at 0%; in assay [2], 0%; in assay [3] it was 0%; in assay [4], 20%; in assay [5], 20%; in assay [6], 20%. Further, the pest or weed control at 250 g/ha in assay [7] is 60%; in assay [8], 0%; in assay [9], 80%; in assay [10], 80%.

Turning to `CCOc1ccc(-c2ccc(Cl)cc2Cl)cc1C1=C(O)C(C)(C)OC(C)(C)C1=O` [Compound A-87], the pest or weed control at 250 g/ha in [1] was 0%; in [2], 0%; in assay [3], 0%; in [4], 0%; in assay [5], 0%; in [6] it was 10%. Besides, the pest or weed control at 250 g/ha in [7] was 0%; in assay [8], 0%; in [9], 80%; in [10], 80%.
